SMILES strings stand for the structures.

For 14 molecules, IC50 results are on record in patent publication US7067549B2, “Pyrrolidone carboxamides” (Actelion Pharmaceuticals AG, priority 2001, dated 2006).

This assay deals with T1, mouse NPY-Y5 receptors (mNPY-Y5) (Mus musculus, UniProt O70342).
T1 construct: The full-length cDNA which contains the mouse NPY-Y5 (mNPY-Y5) receptor coding was amplified from mouse brain cDNA; expressed in transfected cells
T1 sequence (O70342 1-466): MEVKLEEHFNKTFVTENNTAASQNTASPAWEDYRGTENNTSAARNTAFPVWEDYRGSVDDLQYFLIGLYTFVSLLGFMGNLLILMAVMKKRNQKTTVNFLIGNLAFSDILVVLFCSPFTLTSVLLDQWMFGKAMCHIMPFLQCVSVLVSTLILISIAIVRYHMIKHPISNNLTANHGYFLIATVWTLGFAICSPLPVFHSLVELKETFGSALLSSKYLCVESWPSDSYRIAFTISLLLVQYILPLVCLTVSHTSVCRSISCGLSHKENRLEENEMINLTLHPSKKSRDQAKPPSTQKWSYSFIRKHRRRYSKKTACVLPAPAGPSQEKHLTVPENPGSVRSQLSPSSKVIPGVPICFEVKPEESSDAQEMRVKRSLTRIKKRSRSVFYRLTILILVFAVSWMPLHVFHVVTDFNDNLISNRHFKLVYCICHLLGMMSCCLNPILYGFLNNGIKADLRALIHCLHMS
In words: Radioligand competition binding (125I-PYY) on membranes of HEK293 cells expressing recombinant mouse NPY-Y5 receptor. Conditions: displacement of 100 pM 125I-labeled PYY, 1 h at 22° C., read-out: NPY5 IC50. The source says: The full-length cDNA which contains the mouse NPY-Y5 (mNPY-Y5) receptor coding was amplified from mouse brain cDNA using specific primers, which were custom-made on the basis of published sequences, and employing Pfu DNA polymerase (Stratagene). The amplification product was subcloned into a mammalian expression vector pcDNA3 using EcoRI and XhoI restriction sites. Positive clones were sequenced; one clone, which contained the published sequence, was selected for preparing stable cell clones.
Human embryonic kidney 293 (HEK293) cells were transfected with 10 μg of mNPY5 DNA using Lipofectamine reagent (Gibco BRL) in accordance with the manufacturer's instructions. Two days after the transfection, the geneticin selection (1 mg/ml) was initiated and several stable clones were isolated. One of the clones was used for further pharmacological characterization.
Human embryonic kidney cells (HEK293) which express recombinant mouse NPY-Y5 receptors (mNPY-Y5) were disrupted by being frozen/thawed three times in hypotonic Tris buffer (5 mM, pH 7.4, 1 mM MgCl2), after which they were homogenized and centrifuged at 72 000 G for 15 minutes. The precipitate was washed twice with Tris buffer (pH 7.4) containing 25 mM MgCl2, 250 mM sucrose, 0.1 mM phenylmethylsulfonyl fluoride and 0.1 mM 1,10-phenanthroline, then resuspended in the same buffer and stored in aliquots at −80° C. The protein was determined by the Lowry method using bovine serum albumin (BSA) as the standard.
The competition binding analysis was carried out in 250 μl of 25 mM Hepes buffer (pH 7.4, 2.5 mM CaCl2, 1 mM MgCl2, 1% bovine serum albumin and 0.01% sodium azide) which 5 μg of protein, 100 pM ^125I-labeled peptide YY (PYY) and 10 μl of a DMSO solution containing increasing quantities of DMSO solution containing unlabeled test compound. After a one-hour incubation at 22° C., the bound ligand was separated from the unbound ligand by means of filtration through a glass fiber filter. Nonspecific binding was determined in the presence of 1 μM unlabeled PYY. Specific binding is defined as the difference between total binding and nonspecific binding. An IC50 value is defined as the concentration of the antagonist which displaces 50% of the ^125I-labeled […]. This concentration is determined by linear regression analysis following logit/log transformation of the binding values.
Consider `COc1ccc(C)c(N2CC(C(=O)Nc3ccc(Nc4nc(C)cc(C)n4)cc3)CC2=O)c1` (racemic) [rac. N-[4-(4,6-Dimethylpyrimidin-2-ylamino)phenyl]-1-(5-methoxy-2-methylphenyl)-5-oxopyrrolidine-3-carboxamide], for which the half-inhibitory concentration (IC50) was found to be 26 nM.

Take `Cc1cc(C)nc(Nc2ccc(NC(=O)C3CC(=O)N(C4Cc5ccccc5C4)C3)cc2)n1` (racemic) [rac. N-[4-(4,6-Dimethylpyrimidin-2-ylamino)phenyl]-1-indan-2-yl-5-oxopyrrolidine-3-carboxamide]: the IC50 stood at 30 nM. To `Cc1ccc(N2CC(C(=O)Nc3ccc(Nc4nc(C)cc(C)n4)cc3)CC2=O)cc1` (racemic) [rac. N-[4-(4,6-Dimethylpyrimidin-2-ylamino)phenyl]-5-oxo-1-p-tolylpyrrolidine-3-carboxamide] belongs 32 nM; to `Cc1ccc(C)c(N2CC(C(=O)Nc3ccc(N(CC4CC4)c4ccccc4)cc3)CC2=O)c1` (racemic) [rac. N-[4-(Cyclopropylmethylphenylamino)phenyl]-1-(2,5-dimethylphenyl)-5-oxopyrrolidine-3-carboxamide], 45 nM; to `CC(C)c1ccccc1N1CC(C(=O)Nc2ccc(N(CC3CC3)c3ccccc3)cc2)CC1=O` (racemic) [rac. N-[4-(Cyclopropylmethylphenylamino)phenyl]-1-(2-isopropylphenyl)-5-oxopyrrolidine-3-carboxamide], 47 nM. As for `COc1ccc(C)c(N2CC(C(=O)Nc3ccc(N(CC4CC4)c4ccccc4)cc3)CC2=O)c1` (racemic) [rac. N-[4-(Cyclopropylmethylphenylamino)phenyl]-1-(5-methoxy-2-methylphenyl)-5-oxopyrrolidine-3-carboxamide], the IC50 came out at 34 nM. In the case of `CCN(c1ccc(NC(=O)C2CC(=O)N(c3cc(C)ccc3C)C2)cc1)C(C)C` (racemic) [rac. N-[4-(Ethylisopropylamino)phenyl]-1-(2,5-dimethylphenyl)-5-oxopyrrolidine-3-carboxamide] it was 10 nM. In the case of `CCN(c1ccccc1)c1ccc(NC(=O)C2CC(=O)N(c3cc(C)ccc3C)C2)cc1` (racemic) [rac. N-[4-(Ethylphenylamino)phenyl]-1-(2,5-dimethylphenyl)-5-oxopyrrolidine-3-carboxamide] it was 17 nM; in that of `CCN(c1ccccc1)c1ccc(NC(=O)C2CC(=O)N(c3ccccc3C(C)C)C2)cc1` (racemic) [rac. N-[4-(Ethylphenylamino)phenyl]-1-(2-isopropylphenyl)-5-oxopyrrolidine-3-carboxamide], 23 nM. For the molecule `CCN(c1ccccc1)c1ccc(NC(=O)C2CC(=O)N(c3cc(OC)ccc3C)C2)cc1` (racemic) [rac. N-[4-(Ethylphenylamino)phenyl]-1-(5-methoxy-2-methylphenyl)-5-oxopyrrolidine-3-carboxamide], the IC50 turned out to be 30 nM. Turning to `CCN(c1ccccc1)c1ccc(NC(=O)C2CC(=O)N(C3Cc4ccccc4C3)C2)cc1` (racemic) [rac. N-[4-(Ethylphenylamino)phenyl]-1-indan-2-yl-5-oxopyrrolidine-3-carboxamide], the IC50 came out at 49 nM. In the case of `Cc1ccc(C)c(N2CC(C(=O)Nc3ccc(N(c4ccccc4)C(C)C)cc3)CC2=O)c1` (racemic) [rac. N-[4-(Isopropylphenylamino)phenyl]-1-(2,5-dimethylphenyl)-5-oxopyrrolidine-3-carboxamide] it was 22 nM; in that of `CC(C)c1ccccc1N1CC(C(=O)Nc2ccc(N(c3ccccc3)C(C)C)cc2)CC1=O` (racemic) [rac. N-[4-(Isopropylphenylamino)phenyl]-1-(2-isopropylphenyl)-5-oxopyrrolidine-3-carboxamide], 34 nM; in that of `Cc1ccc(C)c(N2CC(C(=O)Nc3ccc(N(C)c4ccccc4)cc3)CC2=O)c1` (racemic) [rac. N-[4-(Methylphenylamino)phenyl]-1-(2,5-dimethylphenyl)-5-oxopyrrolidine-3-carboxamide], 26 nM.
